Measurements as given in PubChem BioAssay AID226 (DTP/NCI, 2004).
Values joined by “and” are separate entries in the source; they are usually repeats but may differ in a detail not shown here. Equal values may be shown once. Inconclusive results and toxic doses are left out.

Tested on: B6C3F1 mice, intracerebral ependymoblastoma, median survival T/C
Test: NCI In Vivo Anticancer Drug Screen. Data for tumor model Ependymoblastoma (intracerebral) in B6C3F1 mice
Conditions: endpoint: median survival time, higher = longer survival
Method: The antitumor activity of compounds was measured in mice bearing transplantable tumors. Survival or tumor size were measured and the results are expressed as the measurement made in the treated group (T) divided by the measurement made in the vehicle treated control group (C). The tumor model used in this assay is Ependymoblastoma (intracerebral) in B6C3F1 mice

[1] = dose: 8.0 mg/kg/injection, schedule: Q01DX005 (ip), vehicle: saline
[2] = dose: 16.0 mg/kg/injection, schedule: Q01DX005 (ip), vehicle: saline
[3] = dose: 32.0 mg/kg/injection, schedule: Q01DX005 (ip), vehicle: saline
[4] = dose: 8.0 mg/kg/injection, schedule: Q01DX005 (ip), vehicle: saline with Tween-80
[5] = dose: 16.0 mg/kg/injection, schedule: Q01DX005 (ip), vehicle: saline with Tween-80
[6] = dose: 32.0 mg/kg/injection, schedule: Q01DX005 (ip), vehicle: saline with Tween-80
[7] = dose: 64.0 mg/kg/injection, schedule: Q01DX005 (ip), vehicle: saline with Tween-80
[8] = dose: 64.0 mg/kg/injection, schedule: Q01DX005 (ip), vehicle: saline
[9] = dose: 256.0 mg/kg/injection, schedule: Q01DX005 (ip), vehicle: saline with Tween-80

`O=CC(NC(=O)N(CCCl)N=O)C(O)C(O)C(O)CO` (centres undefined) was tested, and the T/C (dose: 0.12 mg/kg/injection, schedule: Q01DX005 (ip), vehicle: saline) was 97 % of control and 99 % of control and 108 % of control, the T/C (dose: 0.13 mg/kg/injection, schedule: Q01DX005 (ip), vehicle: saline) was 91 % of control and 93 % of control and the T/C (dose: 1.0 mg/kg/injection, schedule: Q01DX001 (ip), vehicle: Klucel (hydroxypropylcellulose) (HPC)) was 93 % of control and 104 % of control and 107 % of control. The T/C (dose: 1.0 mg/kg/injection, schedule: Q01DX005 (ip), vehicle: Klucel (hydroxypropylcellulose) (HPC)) was 108 % of control, the T/C (dose: 2.0 mg/kg/injection, schedule: Q01DX001 (ip), vehicle: Klucel (hydroxypropylcellulose) (HPC)) was 99 % of control and 103 % of control and 108 % of control and the T/C (dose: 2.0 mg/kg/injection, schedule: Q01DX005 (ip), vehicle: Klucel (hydroxypropylcellulose) (HPC)) was 119 % of control. The T/C (dose: 3.13 mg/kg/injection, schedule: Q01DX001 (ip), vehicle: saline) was 115 % of control, the T/C (dose: 4.0 mg/kg/injection, schedule: Q01DX001 (ip), vehicle: Klucel (hydroxypropylcellulose) (HPC)) was 100 % of control and 107 % of control and 108 % of control and the T/C (dose: 4.0 mg/kg/injection, schedule: Q01DX009 (ip), vehicle: saline) was 195 % of control. The T/C (dose: 6.25 mg/kg/injection, schedule: Q01DX001 (ip), vehicle: saline) was 122 % of control, the T/C (dose: 8.0 mg/kg/injection, schedule: Q01DX001 (ip), vehicle: Klucel (hydroxypropylcellulose) (HPC)) was 103 % of control and 110 % of control and 113 % of control and the T/C (dose: 16.0 mg/kg/injection, schedule: Q01DX001 (ip), vehicle: Klucel (hydroxypropylcellulose) (HPC)) was 111 % of control and 115 % of control and 119 % of control. The T/C (dose: 25.0 mg/kg/injection, schedule: Q01DX001 (ip), vehicle: saline) was 157 % of control.
For `CC(=O)OCC1OC(n2cnc3c(=S)nc[nH]c32)C(OC(C)=O)C1OC(C)=O` (centres undefined), the T/C (dose: 50.0 mg/kg/injection, schedule: Q01DX005 (ip), vehicle: suspension in saline) was 100 % of control, the T/C (dose: 100.0 mg/kg/injection, schedule: Q01DX005 (ip), vehicle: suspension in saline) was 111 % of control and the T/C (dose: 200.0 mg/kg/injection, schedule: Q01DX005 (ip), vehicle: suspension in saline) was 108 % of control.
For `CN(C)C=O`, the T/C (dose: 50.0 mg/kg/injection, schedule: Q01DX005 (ip), vehicle: saline) was 92 % of control and 112 % of control, the T/C (dose: 100.0 mg/kg/injection, schedule: Q01DX005 (ip), vehicle: saline) was 96 % of control and 98 % of control and 115 % of control and the T/C (dose: 200.0 mg/kg/injection, schedule: Q01DX005 (ip), vehicle: saline) was 94 % of control and 99 % of control and 109 % of control. For the same compound, the T/C (dose: 400.0 mg/kg/injection, schedule: Q01DX005 (ip), vehicle: saline) was 94 % of control and 99 % of control and 113 % of control, the T/C (dose: 800.0 mg/kg/injection, schedule: Q01DX005 (ip), vehicle: saline) was 93 % of control and 102 % of control and 105 % of control and the T/C (dose: 1600.0 mg/kg/injection, schedule: Q01DX005 (ip), vehicle: saline) was 93 % of control. For the same compound, the T/C (dose: 2400.0 mg/kg/injection, schedule: Q01DX005 (ip), vehicle: saline) was 97 % of control.
`NC(=O)c1cn(C2OC(CO)C(O)C2O)c2ncnc(N)c12` (centres undefined) was tested, and the T/C (dose: 0.38 mg/kg/injection, schedule: Q01DX005 (ip), vehicle: Klucel (hydroxypropylcellulose) (HPC)) was 92 % of control, the T/C (dose: 0.75 mg/kg/injection, schedule: Q01DX005 (ip), vehicle: Klucel (hydroxypropylcellulose) (HPC)) was 90 % of control and the T/C (dose: 1.5 mg/kg/injection, schedule: Q01DX005 (ip), vehicle: Klucel (hydroxypropylcellulose) (HPC)) was 103 % of control. For the same compound, the T/C (dose: 3.0 mg/kg/injection, schedule: Q01DX005 (ip), vehicle: Klucel (hydroxypropylcellulose) (HPC)) was 94 % of control.
With `N[C@H](C(=O)O)[C@@H]1CC(Cl)=NO1` the T/C (dose: 1.0 mg/kg/injection, schedule: Q01DX005 (ip), vehicle: saline + Tween-80 + alcohol) was 112 % of control, the T/C (dose: 2.0 mg/kg/injection, schedule: Q01DX005 (ip), vehicle: saline + Tween-80 + alcohol) was 106 % of control and the T/C (dose: 2.0 mg/kg/injection, schedule: Q01DX005 (ip), vehicle: saline) was 97 % of control and 111 % of control. The T/C (dose: 4.0 mg/kg/injection, schedule: Q01DX005 (ip), vehicle: saline + Tween-80 + alcohol) was 114 % of control, the T/C (dose: 4.0 mg/kg/injection, schedule: Q01DX005 (ip), vehicle: saline) was 104 % of control and 121 % of control and the T/C (dose: 8.0 mg/kg/injection, schedule: Q01DX005 (ip), vehicle: saline + Tween-80 + alcohol) was 118 % of control. For the same compound, the T/C [1] was 111 % of control and 117 % of control, the T/C (dose: 16.0 mg/kg/injection, schedule: Q01DX005 (ip), vehicle: saline + Tween-80 + alcohol) was 89 % of control and the T/C [2] was 109 % of control and 124 % of control. The T/C [3] was 111 % of control.
In the case of `CC(C)NCC(O)COc1cccc2ccccc12` (centres undefined), the T/C (dose: 4.0 mg/kg/injection, schedule: Q01DX005 (ip), vehicle: saline with Tween-80) is reported as 107 % of control, the T/C (dose: 4.0 mg/kg/injection, schedule: Q01DX009 (ip), vehicle: saline with Tween-80) is reported as 107 % of control and the T/C [4] is reported as 101 % of control. For the same compound, the T/C (dose: 8.0 mg/kg/injection, schedule: Q01DX009 (ip), vehicle: saline with Tween-80) was 101 % of control, the T/C [5] was 112 % of control and the T/C (dose: 16.0 mg/kg/injection, schedule: Q01DX009 (ip), vehicle: saline with Tween-80) was 115 % of control. For the same compound, the T/C [6] was 107 % of control, the T/C (dose: 32.0 mg/kg/injection, schedule: Q01DX009 (ip), vehicle: saline with Tween-80) was 105 % of control and the T/C [7] was 107 % of control. The T/C (dose: 64.0 mg/kg/injection, schedule: Q01DX009 (ip), vehicle: saline with Tween-80) was 107 % of control.
`COc1cc(NC(=O)CN(CCCl)CCCl)cc(OC)c1OC` was tested, and the T/C (dose: 25.0 mg/kg/injection, schedule: Q01DX009 (ip), vehicle: saline with Tween-80) was 113 % of control and the T/C (dose: 50.0 mg/kg/injection, schedule: Q01DX009 (ip), vehicle: saline with Tween-80) was 113 % of control.
With `O=c1[nH]c(=O)n([C@H]2CCCO2)cc1F` the T/C [4] was 98 % of control and 100 % of control, the T/C [1] was 92 % of control and the T/C [5] was 93 % of control and 104 % of control. For the same compound, the T/C [2] was 91 % of control, the T/C [6] was 106 % of control and 109 % of control and the T/C [3] was 92 % of control and 96 % of control. For the same compound, the T/C [7] was 104 % of control and 105 % of control, the T/C [8] was 93 % of control and 103 % of control and the T/C (dose: 128.0 mg/kg/injection, schedule: Q01DX005 (ip), vehicle: saline with Tween-80) was 100 % of control and 119 % of control. The T/C (dose: 128.0 mg/kg/injection, schedule: Q01DX005 (ip), vehicle: saline) was 93 % of control and 110 % of control and the T/C [9] was 124 % of control.
`NC(=O)N(CCCl)N=O` was tested, and the T/C (dose: 1.0 mg/kg/injection, schedule: Q01DX001 (ip), vehicle: saline + alcohol) was 121 % of control and the T/C (dose: 4.0 mg/kg/injection, schedule: Q01DX001 (ip), vehicle: saline + alcohol) was 184 % of control.
In the case of `[Cl][Pt+2][Cl].[NH-]C1CCC1.[NH-]C1CCC1`, the T/C (dose: 10.0 mg/kg/injection, schedule: Q01DX005 (ip), vehicle: dextrose) is reported as 103 % of control, the T/C (dose: 20.0 mg/kg/injection, schedule: Q01DX005 (ip), vehicle: dextrose) is reported as 103 % of control and the T/C (dose: 80.0 mg/kg/injection, schedule: Q01DX005 (ip), vehicle: dextrose) is reported as 90 % of control.
With `COS(C)(=O)=O` the T/C [2] was 118 % of control, the T/C [3] was 102 % of control and the T/C [8] was 100 % of control.
In the case of `CN(C)N=Nc1ccc([N+](=O)[O-])cc1C(N)=O`, the T/C [6] is reported as 112 % of control, the T/C [9] is reported as 167 % of control and the T/C (dose: 512.0 mg/kg/injection, schedule: Q01DX005 (ip), vehicle: saline with Tween-80) is reported as 150 % of control.
In the case of `Cc1c2ccncc2c(C)c2c1[nH]c1ccccc12`, the T/C (dose: 128.0 mg/kg/injection, schedule: Q01DX001 (ip), vehicle: Klucel (hydroxypropylcellulose) (HPC)) is reported as 112 % of control.
For `O=NN(CCF)C(=O)NCCO`, the T/C (dose: 5.18 mg/kg/injection, schedule: Q01DX005 (ip), vehicle: Klucel (hydroxypropylcellulose) (HPC)) was 189 % of control, the T/C (dose: 8.64 mg/kg/injection, schedule: Q01DX005 (ip), vehicle: Klucel (hydroxypropylcellulose) (HPC)) was 357 % of control and the T/C (dose: 13.0 mg/kg/injection, schedule: Q01DX001 (ip), vehicle: saline) was 115 % of control. For the same compound, the T/C (dose: 14.4 mg/kg/injection, schedule: Q01DX005 (ip), vehicle: Klucel (hydroxypropylcellulose) (HPC)) was 357 % of control, the T/C (dose: 21.6 mg/kg/injection, schedule: Q01DX001 (ip), vehicle: saline) was 181 % of control and the T/C (dose: 24.0 mg/kg/injection, schedule: Q01DX005 (ip), vehicle: Klucel (hydroxypropylcellulose) (HPC)) was 357 % of control. The T/C (dose: 36.0 mg/kg/injection, schedule: Q01DX001 (ip), vehicle: saline) was 363 % of control and the T/C (dose: 60.0 mg/kg/injection, schedule: Q01DX001 (ip), vehicle: saline) was 363 % of control.
In the case of `COC(=O)c1ccc(N=NN(C)C)cc1`, the T/C (dose: 8.0 mg/kg/injection, schedule: Q01DX005 (ip), vehicle: saline + alcohol) is reported as 114 % of control, the T/C (dose: 16.0 mg/kg/injection, schedule: Q01DX005 (ip), vehicle: saline + alcohol) is reported as 114 % of control and the T/C (dose: 128.0 mg/kg/injection, schedule: Q01DX005 (ip), vehicle: saline + alcohol) is reported as 160 % of control and 164 % of control. For the same compound, the T/C (dose: 256.0 mg/kg/injection, schedule: Q01DX005 (ip), vehicle: saline + alcohol) was 100 % of control.
